Data from article PMC9468151, “Identification of a binding site on soluble RANKL that can be targeted to inhibit soluble RANK-RANKL interactions and treat osteoporosis” (Nature Communications, 2022).
pIC50: −log10 of the molar value. Several values for one entry are separate records, joined by “and”; a condition that tells them apart may be missing. Identical values can stand only once.

How the values were obtained:
[1] = tested on: sRANKL induced osteoclast differentiation; assay: In vitro anti-osteoclastogenesis activity determination (TRAP staining); format: cell-based, mouse; set-up: key to inhibition of osteoclastogenesis, dose-response (fig. S2a): % inhibition = 100 − (treated−unstimulated)/(untreated−unstimulated)×100; settings: for pIC50: BMMs, M-CSF + 100 ng/mL sRANKL, 5 days, TRAP staining, read-out: OC IC50 (anti-osteoclastogenesis activity); for inhibition of osteoclastogenesis, dose-response (fig. S2a): three replicate columns
Protocol: Mouse osteoclasts were cultured according to the previously reported protocols. BMMs were plated in 96-well plates at a density of 6 × 10^3 cells/well with complete medium containing 10 ng/mL M-CSF. The following day, cells were then stimulated with 100 ng/mL sRANKL in the presence or absence of compounds with different concentrations every 2 days until osteoclasts formed. In order to calculate IC50, we set 9 concentrations for each compound and untreated and non-sRANKL unstimulating group as controls, each with triplicated repeated wells. After 5 days, cells were fixed with 4% paraformaldehyde and then applied TRAP-staining to identify osteoclasts by using the TRAP-staining kit. Osteoclasts number (OC No.) in each well was counted and the percentage of inhibition ratio was calculated as follows:1 OCinhibitoryratio%=100−OCNo.treated−OCNo.unstimulating/OCNo.untreated−OCNo.unstimulating×100%
The dosages and their correspondent osteoclastogenesis inhibitory activity curve and IC50 value were conducted by using Nonlinear regression (curve fit) analytic procedure in GraphPad Prism 8. Photographs of individual wells were taken using Leica microscope.

RAW264.7 cells = assay: In vitro cytotoxicity assay (MTT); format: cell-based, mouse; settings: RAW264.7, MTT
Protocol: MTT assay was used to determine cell viability. RAW264.7 cells in the logarithmic growth phase were cultured in 96-well plates with 6 × 10^3 cells in each well and incubated for 24 h. The surviving cells were then determined by MTT method. […] Cell growth inhibition ratio was calculated as follows: Cellgrowthinhibitionratio%=ODvehicle−ODtreaed/ODvehicle×100%
Cell cytotoxicity CC50 value were conducted by using Nonlinear regression (curve fit) analytic procedure in GraphPad Prism 8.

SMILES | pIC50 [1] | inhibition of osteoclastogenesis, dose-response (fig. S2a) ([1]; conc. 0.0023464 μM) | inhibition of osteoclastogenesis, dose-response (fig. S2a) ([1]; conc. 0.00774313 μM) | inhibition of osteoclastogenesis, dose-response (fig. S2a) ([1]; conc. 0.0255523 μM) | inhibition of osteoclastogenesis, dose-response (fig. S2a) ([1]; conc. 0.0843226 μM) | inhibition of osteoclastogenesis, dose-response (fig. S2a) ([1]; conc. 0.278265 μM) | inhibition of osteoclastogenesis, dose-response (fig. S2a) ([1]; conc. 0.918274 μM) | inhibition of osteoclastogenesis, dose-response (fig. S2a) ([1]; conc. 3.0303 μM) | inhibition of osteoclastogenesis, dose-response (fig. S2a) ([1]; conc. 10 μM) | inhibition of osteoclastogenesis, dose-response (fig. S2a) ([1]; conc. 33 μM) | CC50 (RAW264.7 cells) [µM]
CC(=O)C(=NNc1ccccc1C(=O)O)C(=O)N1CCc2ccccc2C1 [S3-17] | 5.17 | 4.167 and -4.167 and 1.19 | 7.7381 and 11.9048 and 8.036 | 13.9881 and 14.2857 and 19.3452 | 22.9167 and 21.7262 and 26.4881 | 30.3571 and 29.4643 and 30.6548 | 35.1191 and 33.0357 and 33.6309 | 38.6905 and 40.1786 and 34.5238 | 50.8929 and 50 and 48.8095 | 63.3929 and 63.6905 and 75.5952 | 82.1
CCOC(=O)c1sc(NC(=O)C(=NNc2c(C)cccc2C(=O)O)C(C)=O)nc1C [S3-11] |  | 6.678 and -7.003 and 1.303 | -5.049 and 1.792 and -0.6515 | -0.6515 and 3.257 and 0.3257 | 5.212 and -2.117 and 3.746 | 16.4495 and 15.9609 and 19.3811 | 28.1759 and 21.3355 and 30.1303 | 50.1629 and 34.5277 and 49.6743 | 97.557 and 94.1368 and 98.0456 | 100 | 75.2
CCOC(=O)c1sc(NC(=O)C(=NNc2ccc(C)cc2C(=O)O)C(C)=O)nc1C [S3-13] | 4.97 | 1.735 and -0.7143 and 2.347 | 1.735 and -2.551 and 3.571 | 7.857 and -4.694 and -0.102 | 11.8367 and 3.878 and -9.592 | 11.2245 and 7.551 and -1.327 | 7.2449 and 6.633 and 3.571 | 7.2449 and 2.959 and -1.327 | 47.6531 and 40.3061 and 42.7551 | 100 | > 100
CC(=O)C(=NNc1ccccc1C(=O)[O-])C(=O)Nc1nc(C)cs1.[Na+] [S3-12] |  | 4.4898 and 6.02 and -2.2449 | 6.939 and -1.02 and -1.633 | 4.796 and 0.8163 and -3.469 | 37.8571 and 16.4286 and 7.857 | 39.3878 and 32.9592 and 21.3265 | 55.3061 and 47.3469 and 54.0816 | 74.2857 and 67.551 and 64.4898 | 94.7959 and 77.0408 and 85 | 100 | 65.8
CCOC(=O)c1sc(NC(=O)C(=NNc2ccccc2C(=O)O)C(=O)OC(C)C)nc1C [S3-22] | 6.40 | 1.224 and 0.8568 and 0.4896 | 0.8568 and 1.958 and 3.427 | 4.896 and 10.0367 and 5.263 | 26.1934 and 25.0918 and 21.4198 | 44.1861 and 41.6157 and 42.7173 | 58.8739 and 65.1163 and 60.7099 | 88.2497 and 86.7809 and 89.3513 | 100 | 100 | 81.2
CC(=O)C(=NNc1ccccc1C(=O)O)C(=O)Nc1nc(C)c(C(=O)N2CCOCC2)s1 [S3-20] | 5.06 | -0.2448 and 3.06 and 1.591 | 8.935 and 4.896 and 2.326 | 5.263 and 4.529 and 0.8568 | 5.63 and 2.326 and 1.591 | 4.529 and 3.06 and 3.794 | 5.63 and 5.263 (2×) | 5.263 and 7.466 and 5.998 | 58.8739 and 58.1395 and 58.5067 | 97.4296 and 97.0624 and 96.328 | > 100
CCOC(=O)c1sc(NC(=O)C(=NNc2ccccc2C(=O)OC)C(C)=O)nc1C [S3-00] |  | 7.803 and 2.07 and 1.592 | 3.981 and 7.325 and 13.535 | -1.274 and 4.936 and 3.025 | 10.6688 and 9.713 and 2.07 | 4.936 and 4.4586 and 8.758 | 21.1783 and 12.5796 and 14.9681 | 46.9745 and 43.6306 and 45.5414 | 57.4841 and 67.9936 and 66.5605 | 93.3121 and 95.2229 and 92.8344 | 57.2
CCOC(=O)c1sc(NC(=O)C(=NNc2ccccc2O)C(C)=O)nc1C [S3-06] | 5.85 | -2.117 and 4.235 and 7.166 | 2.28 and -2.606 and 3.746 | 1.792 and 3.746 and -0.1629 | 4.723 and 7.166 and -1.14 | 27.1987 and 24.2671 and 26.2215 | 39.4137 and 37.4593 and 42.3453 | 68.7296 and 60.9121 and 64.3322 | 81.9218 (2×) and 82.899 | 100 | 202
CC(=O)C(=NNc1ccc(O)cc1C(=O)O)C(=O)Nc1ccccn1 [S3-15-3] | 5.44 | 7.632 and 19.0789 and 12.7632 | 4.079 and 5.263 and 2.105 | 2.105 and -3.421 and -3.026 | 11.579 and 29.3421 and 8.026 | 15.5263 and 26.9737 and 19.0789 | 44.7368 and 36.4474 and 37.6316 | 52.6316 and 53.8158 and 45.1316 | 64.4737 and 56.1842 and 57.3684 | 73.9474 and 72.3684 and 70.7895 | 62.8
CC(=O)C(=NNc1ccccc1C(=O)O)C(=O)Nc1nc2ccccc2s1 [S3-16] | 6.14 |  | 3.543 and 4.724 and 0.7874 | 9.449 and 8.661 (2×) | 16.9291 and 24.4094 and 12.9921 | 30.315 and 29.5276 and 31.1024 | 51.1811 and 52.7559 and 54.7244 | 73.2284 and 71.6535 and 75.1968 | 82.6772 and 95.2756 and 99.2126 | 100 | 69.2
CC(=O)C(=NNc1ccccc1C(=O)O)C(=O)Nc1nc(C)cs1 [S3-08] | 5.63 | 1.304 and -3.21 and -2.307 | 3.711 and 2.508 and 1.304 | 3.109 and 3.41 and 5.517 | 6.118 and 6.419 and 8.225 | 18.7563 and 19.0572 and 20.2608 | 29.8897 and 31.0933 and 35.005 | 50.9529 and 40.7222 and 44.6339 | 83.7512 and 85.2558 and 78.6359 | 100 | > 100
